Measured values published in US5016655A, “Cigarette manufacturing process” (priority 1989, dated 1991).
Entries after “also recorded” stand apart in the source; their conditions may differ. Read-outs that look alike come from different tables or passages of the source.

Tests used:
human = conditions: cited from earlier work
[1] = cited from earlier work; for Boiling Point: Table V
[2] = tested on: localization of radioactivity of [14C]NNN in bronchial epithelium; experiment: alcohols by inhalation, localization of radioactivity of [14C]NNN (Table VII); type: in vivo, mice; conditions: for potency as inhibitor in mice: mouse, in vivo
Method: Additional alcohols were tested for their effects on the localization of radioactivity of [^14 C]NNN in bronchial epithelium when the alcohols were administered by inhalation. For these studies, two ml of the alcohol were placed in the bottom of a 600 ml glass beaker. A wire mesh platform was constructed so that the mouse was positioned approximately three-quarter to one inch above the alcohol. The beaker was kept tightly sealed unless otherwise indicated. All mice were fasted overnight, except where noted, and sacrificed one hour after intravenous [^14 C]NNN administration. These mice were also processed for whole-body autoradiography. Although the protocols varied slightly as summarized below, these minor differences should not effect the results.
A. Exposures in beakers maintained at 50° C. (plus or minus
B. Exposure in beakers at room temperature. Beakers were
C. Beakers equilibrated with alcohols at least 20 min in […]

[3] = tested on: localization of radioactivity ([14C]NNN) in bronchial epithelium; experiment: effect of substances on localization of radioactivity one hour after intravenous [14C]NNN (Table VI); type: in vivo, mice; conditions: for decrease in the localization of radioactivity in bronchial epithelium: one hour after intravenous [14C]NNN; for decrease in the localization of radioactivity in bronchial epithelium / response on the uptake of radioactivity in the bronchial epithelium: solids at ambient temperature
Description: Table VI below lists the compounds tested for their effect on the localization of radioactivity in bronchial epithelium one hour after intravenous administration of [^14 C]NNN. Unless indicated otherwise, the compounds were parenterally administered acutely at various times prior to [^14 C]NNN. In many cases only one mouse was studied for each compound. […].
Effect of substances on the localization of radioactivity in bronchial epithelium of mice one hour after intravenously receiving [^14 C] nitrosonornicotine.
For all the remaining compounds the general protocol was to administer the potential blocker some minutes prior to administration of the [^14 C]NNN. Potential blockers were given orally, intraperitoneally or by inhalation, and the [^14 C]NNN was given intravenously.

[4] = tested on: localization of radioactivity ([14C]NNN) in bronchial epithelium; experiment: orally administered alcohols, localization of radioactivity after intravenous [14C]NNN; type: in vivo, mice; conditions: gavage 1.0 g/kg, 20 min before iv [14C]NNN
Method: For each of these alcohols, the mouse was fasted overnight, the alcohol in aqueous solution at a dose of 1.0 g/kg was administered by gavage and after twenty minutes the [^14 C]NNN was injected intravenously. All mice were sacrificed one hour after the [^14 C]NNN treatment and processed for whole-body autoradiography,as described previously.

[5] = tested on: localization of nitrosamines (NNN, NNK) in tissues; experiment: nitrosamine delocalization / blocking, general statements; conditions: in vivo
[6] = tested on: nitrosamine formation on epithelial membranes; tumor development; conditions: cited from earlier work
rats = conditions: cited from earlier work
[7] = tested on: localization of radioactivity ([14C]NNN) in salivary duct and bronchial epithelium and liver; experiment: whole-body autoradiography of [14C]NNN localization after oral alcohols (Example 1, FIG. 1); type: in vivo, male C57BL/6J mice
Method: One hour later, the mice were anesthetized lightly with ether and frozen by immersion in dry ice/hexane. Twenty u-thick whole-body sagittal sections of the frozen mice were taken onto Scotch tape and were then processed for whole-body autoradiography by known methods. See W. Waddell et al., Drug Fate and Metabolism: Methods and Techniques, E. R. Garrett and J. L. Hirtz, Eds. […] Photometric density in areas of the developed autoradiographs was measured with an ADG Instruments photometer and a photocell with an aperture of three mm lying on the easel of a photographic enlarger. The X-ray film was placed in the enlarger and raised to produce a magnification of thirty-five times on the easel.
NNN. […] (Twenty minutes is the average time it takes for alcohols introduced by oral intubation into mice to reach the peak blood level.)
The number within each bar thereof represents the dose in g/kg of that alcohol which was administered orally twenty minutes before the [^14 C] NNN was given intraveously. The mice were frozen one hour after receiving the [^14 C] NNN. The means for each mouse were from fifteen measurements on random areas of that site (five absorbancies on each of three autoradiographs) after setting blood in each on zero.

[8] = tested on: nitrosamine ([14C]NNN) localization; experiment: imidazole intraperitoneal, [14C]NNN autoradiography (Examples 4 and 5); type: in vivo, male C57BL/6J mouse; conditions: ip
Method: An adult male C57BL/6J mouse was injected intraperitoneally with 0.02 ml/g body weight of a solution of imidazole in water. The imidazole solution concentration was such that 0.05 g of imidazole was delivered per kg of body weight. […] See Example 1.
Example 4 was duplicated except that the adult mouse was injected intraperitoneally with 0.02 ml/g body weight of a solution of imidazole in water, wherein the solution concentration was such that 0.25 g of imidazole was delivered per kg of body weight.

tumor formation = conditions: rat, in vivo; cited from earlier work

Question: For CCCCCCC(C)O (stereo not shown) [Capryl alcohol], which “Toxicity” value (human; Table V) is on record?
Answer: Low toxity

Question: What about the “Boiling Point” value [1] of the same compound?
Answer: 178 °C

Question: With CCCCCCO [1-hexanol] as the compound, how does the “potency as inhibitor in mice” value [2] read?
Answer: among the most potent inhibitors

Question: With OCCC(O)CO (stereo not shown) [1,2,4-ButanetrioI, 1,2,4-butanetriol] as the compound, how does the “Toxicity” value (human; Table V) read?
Answer: Non-toxic

Question: And the “Boiling Point” value [1]?
Answer: 172 °C

Question: For CC(C)(C(=O)c1cccnc1)c1cccnc1 [metyrapone], which “decrease in the localization of radioactivity in bronchial epithelium” value (“decrease in the localization” for short) [3] is on record?
Answer: significant decrease

Question: For CCCCCCCCO [n-Octyl alcohol], which “Toxicity” value (human; Table V) is on record?
Answer: Flavor agent

Question: What about the “Boiling Point” value [1] of the same compound?
Answer: 86 °C

Question: Which “Toxicity” value (human; Table V) does the source give for CC(O)CCO (stereo not shown) [1,3 Butanediol] here?
Answer: Non-toxic

Question: What about the “Boiling Point” value [1] of the same compound?
Answer: 207 °C

Question: For NCCCC(N)(C(=O)O)C(F)F (stereo not shown) [difluoromethylornithine], which “response on the uptake of radioactivity in the bronchial epithelium” value (“response on the uptake of radioactivity” for short) [3] is on record?
Answer: minimal response

Question: With CCCC(C)O (stereo not shown) [2-pentanol] as the compound, how does the “decrease in the localization” value [4] read?
Answer: significant decrease

Question: With CC1=C(/C=C/C(C)=C/C=C/C(C)=C/CO)C(C)(C)CCC1 [retinol] as the compound, how does the “response on the uptake of radioactivity” value [3] read?
Answer: minimal response

Question: Which results are given for CCCCCCC(C)O (stereo not shown) [2-octanol]?
Answer: boiling points [1]: 180 °; effectiveness against NNN or NNK [5]: against NNK; potency as inhibitor in mice [2]: among the most potent inhibitors

Question: With CC1=C(/C=C/C(C)=C/C=C/C(C)=C/C(=O)O)C(C)(C)CCC1 [retinoic acid] as the compound, how does the “response on the uptake of radioactivity” value [3] read?
Answer: minimal response

Question: Which “effect on tumor development” value [6] does the source give for Vitamin A here?
Answer: inhibit tumor development

Question: Which “decrease in the localization” value [3] does the source give for O=Cc1ccc2c(c1)OCO2 [piperonal] here?
Answer: significant decrease

Question: For C[S+](C)[O-] [DMSO, dimethylsulfoxide], which “decrease of radioactivity in bronchial epithelium, oral vs ip” value ([3]; given orally) is on record?
Answer: less decrease

Question: And the “nitrosamine delocalization / inhibition of nitrosamine localization” value (shortened to “nitrosamine delocalization / inhibition”) [5]?
Answer: found to delocalize nitrosamines

Question: With Dipropylene glycol monomethyl as the compound, how does the “Boiling Point” value [1] read?
Answer: 189 °C

Question: With OCC=Cc1ccccc1 [Cinnamyl alcohol] as the compound, how does the “Boiling Point” value [1] read?
Answer: 257.5 °C

Question: For CCCCCCCCCCCCCCCCCCO [Stearyl alcohol, octadecanol], which “Toxicity” value (human; Table V) is on record?
Answer: Non-toxic

Question: What about the “Toxicity” value (human) of the same compound?
Answer: non-toxic

Question: And the “Boiling Point” value [1]?
Answer: 210 °C

Question: Which “Acute Oral LD50” value (rats; rats, oral) does the source give for CC(C)O [isopropyl alcohol, isopropanol] here?
Answer: 5.84 q/kg

Question: With O=C1O[C@H]([C@@H](O)CO)C(O)=C1O [Vitamin C, ascorbic acid] as the compound, how does the “effect on formation of nitrosamines on epithelial membranes” value [6] read?
Answer: prevent the formation of nitrosamines

Question: With CC(C)(C)O [t-butanol] as the compound, how does the “localization of [14C]NNN in bronchial epithelium” value ([7]; high dosage) read?
Answer: almost completely abolished; also recorded: greatest inhibition

Question: With CCC(CC)CO [2-Ethyl butyl alcohol] as the compound, how does the “Toxicity” value (human; Table V) read?
Answer: Low-toxicity

Question: What about the “Boiling Point” value [1] of the same compound?
Answer: 149 °C

Question: Which “decrease in the localization” value [4] does the source give for CCC(C)CO (stereo not shown) [active amyl alcohol, 2-methyl-1-butanol] here?
Answer: significant decrease

Question: And the “Acute Oral LD50” value (rats; rats, oral)?
Answer: 4.9 q/kg

Question: With [Cl-].[Na+] [sodium chloride, reference compound] as the compound, how does the LD50 (rats; rats, oral, comparison) read?
Answer: about 3.75 g/Kg

Question: Which “localization of radioactivity in salivary duct and bronchial epithelium and in both periportal and central areas of the liver” value ([7]; 20 min before iv [14C]NNN) does the source give for CCO [ethanol] here?
Answer: reduced

Question: Which “response on the uptake of radioactivity” value [3] does the source give for c1cn[nH]c1 [pyrazole] here?
Answer: minimal response

Question: And the “nitrosamine delocalization / inhibition” value [5]?
Answer: found to delocalize nitrosamines

Question: Which “nitrosamine delocalization / inhibition” value [5] does the source give for S=C=NCc1ccccc1 [benzyl isothiocyanate] here?
Answer: found to delocalize nitrosamines

Question: For NCCCCN [putrescine], which “response on the uptake of radioactivity” value [3] is on record?
Answer: minimal response

Question: For CCCO [propyl alcohol, n-propanol], which “Acute Oral LD50” value (rats; rats, oral) is on record?
Answer: 5.4 q/kg

Question: For CC(C)CCO [isoamyl alcohol], which “decrease in the localization” value [4] is on record?
Answer: significant decrease

Question: What about the “Acute Oral LD50” value (rats; rats, oral) of the same compound?
Answer: 1.30 q/kg

Question: Which “decrease in the localization” value [4] does the source give for CC(C)CO [isobutyl alcohol, isobutanol] here?
Answer: significant decrease

Question: And the “Acute Oral LD50” value (rats; rats, oral)?
Answer: 2.46 q/kg

Question: Which “Boiling Point” value [1] does the source give for Methyl cyclohexanol here?
Answer: 173 °C

Question: For CCCCCCCCCCCCCCCCO [Cetyl alcohol, hexadecanol], which “Toxicity” value (human; Table V) is on record?
Answer: Non-toxic

Question: And the “Toxicity” value (human)?
Answer: non-toxic

Question: And the “Boiling Point” value [1]?
Answer: 344 °C

Question: With CC1CCC(C(C)C)C(O)C1 (stereo not shown) [menthol, reference compound] as the compound, how does the “Toxicity” value (human; Table V) read?
Answer: Flavor Agent

Question: And the “Boiling Point” value [1]?
Answer: 216 °C

Question: And the “nitrosamine delocalization / inhibition” value [5]?
Answer: does not have the same nitrosamine blocking effect; also recorded: does not inhibit nitrosamine localization

Question: For CCCCCCCCCCCCO [dodecanol, 98%, dodecanol], which “Acute Oral LD50” value (rats; rats, oral) is on record?
Answer: 40 q/kg

Question: For CCCCCCCCCCO [n-Decyl alcohol], which “Toxicity” value (human; Table V) is on record?
Answer: Low-toxicity

Question: And the “Boiling Point” value [1]?
Answer: 210 °C

Question: For diaminopropane HCl, which “response on the uptake of radioactivity” value [3] is on record?
Answer: minimal response

Question: With [Se] [Selenium] as the compound, how does the “effect on tumor development” value [6] read?
Answer: inhibit tumor development

Question: What does the source list for c1c[nH]cn1 [imidazole]?
Answer: decrease in the localization of radioactivity in bronchial epithelium [3]: significant decrease; nitrosamine delocalization ([8]; 0.05 g/kg): Significant nitrosamine delocalization; nitrosamine delocalization ([8]; 0.25 g/kg): significant delocalization of nitrosamine; nitrosamine delocalization / inhibition of nitrosamine localization [5]: found to delocalize nitrosamines

Question: Which “decrease in the localization” value [4] does the source give for CCC(C)O (stereo not shown) [sec-butyl alcohol, sec-butanol] here?
Answer: significant decrease

Question: For c1ccc2ccccc2c1 [naphthalene], which “decrease in the localization” value [3] is on record?
Answer: significant decrease

Question: With CC(C)[C@@H]1CC[C@@H](C)C[C@H]1O [1-menthol] as the compound, how does the “response on the uptake of radioactivity” value [3] read?
Answer: minimal response

Question: Which “Toxicity” value (human; Table V) does the source give for CCCCCCCCCO [n-Nonyl alcohol] here?
Answer: Low-toxicity

Question: Which results are given for CCCCCCCCCCCCO [Lauryl alcohol]?
Answer: Toxicity (human; Table V): Low-toxicity; Boiling Point [1]: 255 °C

Question: With vitamin E as the compound, how does the “effect on formation of nitrosamines on epithelial membranes” value [6] read?
Answer: prevent the formation of nitrosamines

Question: What does the source list for CCCCC(CC)CO (stereo not shown) [2-ethyl hexanol]?
Answer: Toxicity (human; Table V): Low-toxicity; Acute Oral LD50 (rats; rat, in vivo, po): 3.2-7.1

Question: What does the source list for CC(C)(O)C(C)(C)O [Pinacol]?
Answer: Toxicity (human; Table V): Low-toxicity; Boiling Point [1]: 174 °C

Question: With CC1CCCC(O)C1 (stereo not shown) [3-methylcyclohexanol] as the compound, how does the boiling points [1] read?
Answer: 174 °

Question: And the “potency compared with cyclohexanol” value ([2]; inhalation)?
Answer: even more potent than cyclohexanol

Question: What about the “potency as inhibitor in mice” value [2] of the same compound?
Answer: among the most potent inhibitors

Question: With C#CCN(C)Cc1ccccc1 [parqyline] as the compound, how does the “response on the uptake of radioactivity” value [3] read?
Answer: minimal response

Question: With CN(CCCC(=O)c1cccnc1)N=O [NNK] as the compound, how does the “carcinogenicity / tumor induction” value (tumor formation) read?
Answer: powerful environmental carcinogens
